Data: patent publication US20100143241A1, “Method and apparatus for delivery of agents across the blood brain barrier” (priority 2008, published 2010)

What was measured:
blood-brain barrier = experiment: T1-weighted MRI contrast enhancement of the mouse brain after BBB opening with microbubbles and unfocused ultrasound; assay type: in vivo; details: for enhancement in CSF and brain parenchyma: Gd-DTPA 6.4 mmol/kg IP
Description: Magnetic resonance images were acquired of a live mouse using a 7.0 T magnetic resonance system developed for magnetic resonance microscopy. […] IV injection of gadopentetate dimeglumine a standard magnetic resonance contrast agent results in enhancement of the muscles (FIG. 2b) but the brain remains dark. […] However, application of the ultrasound energy with the combination of Definity and gadopentetate dimeglumine opens the blood-brain barrier allowing the gadopentetate dimeglumine to actively stain the brain. Note in FIG. 2d the signal from the actively stained brain is nearly 5× (i.e., 5 fold or 5 times) stronger than it is in the unstained brain in FIG. 2a.
To open the BBB, 30 microliters of perflutren lipid microspheres (activated Definity) were injected through a tail vein catheter and simultaneously the ultrasound pulse sequence was initiated. The ultrasound was applied for 3 minutes.
(§1) To enhance the brain with MR contrast, Gd-DTPA (Magnevist, Bayer HealthCare Pharmaceuticals, Wayne, N.J.) was administered by intraperitoneal (IP) injection 10 minutes prior to BOMUS (FIG. 14b). […] The Gd-DTPA dose was 3.2, 6.4, or 9.5 mmol/kg, as noted later. After BOMUS, high-throughput MR images were acquired. Because Gd-DTPA is normally excluded by the BBB, opening of the BBB was indicated by contrast-enhancement on T1-weighted MRI.
For MRI, a 35 mm diameter quadrature transmit/receive volume coil (m2m Imaging Corp., Cleveland, Ohio) was used. The MR system was a 7 T horizontal bore magnet driven by a GE EXCITE console (General Electric Healthcare, Milwaukee, Wis.). MR images were acquired using either a high-throughput or high-resolution protocol. The high-throughput scan (3.2 minutes) used a 3D spoiled gradient recalled (SPGR) sequence with the following parameters: repetition time (TR)=25 ms; echo time (TE)=2 ms; flip angle (FA)=30 degrees; field of view (FOV)=20×20×12 mm; matrix=128×128×60; number of averages (NEX)=1. Data were acquired at a resolution of 156×156×200 micrometers.
High-resolution images were acquired with a similar 51 minute SPGR protocol: TR=25 ms; TE=3-4 ms; FA=15-22 degrees; FOV=20×20×8 mm; matrix=384×384×80; NEX=4. Data were acquired at a resolution of 52×52×100 micrometers.
To determine if the combination of unfocused ultrasound and microbubbles could be used to globally open the BBB, this treatment was compared to a variety of control scenarios (FIG. 16). […] However, co-administration of ultrasound and microbubbles globally opens the BBB, allowing the Gd-DTPA to enhance the brain. Animals received Gd-DTPA 6.4 mmol/kg IP 10 minutes prior to treatment, and T1-weighted images (high-throughput protocol) were acquired 20 minutes after treatment (FIG. 14b).

[1] = in vivo; cited from earlier work
mouse brain = experiment: T1 estimation by spin echo MRI in mice given Gd-DTPA with or without BOMUS; assay type: in vivo
Experimental: as §1
T1 measurements were performed by acquiring a series of 2D spin echo images with varying TRs: TR=200, 400, 800, 1600, 3200, 6400, or 12800 ms; TE=7 ms; BW=31.25; slice thickness=1 mm; FOV=20×20 mm; matrix=128×128. T1 over a region of interest (ROI) was estimated using a three-parameter non-linear fit of the data to the following equation: I=m(1−[…])+a, where I is the mean ROI intensity and TR is the repetition time. The three terms that were fit were m, a multiplicative constant; a, an additive constant; and T1.
To measure the change in relaxivity due to the Gd-DTPA, T1 was estimated in ROIs selected from the cortex, basal ganglia and muscle (FIG. 21). In the control animal receiving neither Gd-DTPA nor BOMUS, T1 values were long in the cortex (2.08 s), basal ganglia (1.97 s), and muscle (2.01 s). In the animal given only Gd-DTPA, the muscle T1 shortened dramatically (0.71 s); but T1 was only shortened modestly in the cortex (1.53 s) and basal ganglia (1.56 s) because the intact BBB excluded the Gd-DTPA. However, in the BOMUS-treated animal, Gd-DTPA not only shortened T1 in the muscle (0.80 s), but Gd-DTPA also crossed the BBB and dramatically shortened T1 in the cortex (0.50 s) and basal ganglia (0.50 s).

[2] = Gd-DTPA along with BOMUS, high-resolution SPGR, left anterior cortex
[3] = BOMUS-treated animal given Gd-DTPA
[4] = animal given only Gd-DTPA, no BOMUS, intact BBB

CNC[C@H](O)[C@@H](O)[C@H](O)[C@H](O)CO.CNC[C@H](O)[C@@H](O)[C@H](O)[C@H](O)CO.O=C([O-])CN(CCN(CC(=O)[O-])CC(=O)O)CCN(CC(=O)[O-])CC(=O)O.[Gd+3] [Gd-DTPA, gadopentetate dimeglumine]
enhancement in CSF and brain parenchyma (blood-brain barrier; both ultrasound and microbubbles simultaneously): dramatic enhancement in the CSF and brain parenchyma
enhancement in CSF and brain parenchyma (blood-brain barrier; no treatment, only ultrasound, or only microbubbles): no enhancement in the cerebrospinal fluid (CSF) or in the brain parenchyma
increase in SNR over control mouse receiving no contrast agent (blood-brain barrier; [2]): 90%
increase in SNR over mouse receiving only Gd-DTPA (blood-brain barrier; [2]): 63%
time post-injection within which most of the enhancement occurs (blood-brain barrier; IP injection, preliminary studies): 10 to 15 min
wash-out of brain staining after BOMUS (blood-brain barrier; time-course of T1-weighted signal, up to 27 hours after BOMUS): washes out within a day
signal of actively stained brain relative to unstained brain (blood-brain barrier; ultrasound with Definity and gadopentetate dimeglumine, 7.0 T, T1-weighted, FIG. 2): ~5 ×
half-life [1]: 1.6 h
T1 in basal ganglia (mouse brain; [3]): 0.50 s
T1 in cortex (mouse brain; [3]): 0.50 s
T1 in muscle (mouse brain; [3]): 0.80 s
T1 of brain after active staining (mouse brain; Gd-DTPA with BOMUS, reduced from approximately 2000 ms): ~500 ms
T1 in muscle (mouse brain; animal given only Gd-DTPA, no BOMUS): 0.71 s
T1 in basal ganglia (mouse brain; [4]): 1.56 s
T1 in cortex (mouse brain; [4]): 1.53 s
